Results from publication PMC7143549, “Anticancer Activities of Meroterpenoids Isolated from the Brown Alga Cystoseira usneoides against the Human Colon Cancer Cells HT-29” (Foods, 2020).

Experiments:
[1] = test system: HT-29 colon cancer cells; assay: Cell cycle analysis by flow cytometry (PI); format: cell-based, human; settings: 24 h; 30 μg/mL of 1, 2, 5, 6, 7, 8 and 90 μg/mL of 3 and 4 (Figure 4B)
Experimental: HT-29 cells (1 × 10^6 cells/well) were seeded in six-well plates and incubated for 24 h, followed by treatment with AMTs dissolved in DMSO (final concentrations of 10, 20, and 30 µg/mL for compounds 1, 2, 5, 6, 7, and 8, and 30, 60, and 90 µg/mL for compounds 3 and 4, and always below 0.05% DMSO) and 24 h of additional incubation. Colchicine (final concentration of 0.2 μg/mL) was used as positive control. The cells were then washed, harvested with trypsin, and centrifuged at 1500 rpm (5 min, 25 °C). The resulting pellet was fixed with ice-cold 70% ethanol (1 mL/10^6 cells) and the samples were stored at −4°C overnight. After fixation, the cells were washed with PBS, stained with PBS containing 5 mg/mL of RNase A, and incubated for 48 h at 4 °C. Subsequently, 50 μL of 0.1 mg/mL of IP was added and incubated for 1 h at 4 °C. The relative DNA content per cell was analyzed using a Cytomics FC500 flow cytometer (Beckman Coulter, Indianapolis, IN, USA). The data acquisition was performed with the DML program and the analysis of the acquired data with the CXP Software (Beckman Coulter, Indianapolis, IN, USA).

[2] = test system: HT-29 cells; assay: Wound migration assay; format: cell-based, human; settings: 24 h, wound-healing; for inhibition at 10 µg/mL: Homo sapiens, HT-29, read-out: inhibition of cell migration
Experimental: For cell migration assay, HT-29 cells were seeded in six-well culture plates and allowed to grow to 80%–90% confluence for the experiment. After aspirating the medium, similar sized wounds were performed in the monolayer cells using a sterile micropipette tip. Wounded monolayer cells were washed three times with PBS to remove cell debris and then replaced with complete McCoy’s medium. HT-29 cells were treated with the AMTs (10 µg/mL for compounds 1, 2, 5, 6, 7, and 8, and 30 µg/mL for compounds 3 and 4) and incubated for 24h. For the image analysis of the effect of each treatment on cell migration, the wounded area was photographed immediately after scratching and after 24 h. The level of cell migration was determined using NIH Image software (Image J 1.44g, Wayne Rasband, USA) and then expressed as a percentage of wound closure area using the equation: Migration rate (%) = [(wound area at 0 h − wound area at 24 h)/wound area at 0 h] × 100%.

[3] = test system: HT-29 cells; assay: Cultrex 96 well BME cell invasion assay; format: cell-based; settings: Homo sapiens, 24 h; for inhibition at 10 µg/mL: 10 μg/mL
Experimental: The invasion activities were measured using Trevigen’s Cultrex® 96 Well Cell Invasion Assays, as previously described. Briefly, about 50 μL of 1X basement membrane extract (BME) in coat buffer was added to each well. After incubation for 4 h at 37 °C in a 5% CO2 atmosphere, the HT-29 cells at 50,000 cells/50μL in serum free McCoy’s medium were added per well to the top chamber containing the tested compound (10 µg/mL for 1, 2, 5, 6, 7, and 8, and 30 µg/mL for compounds 3 and 4). About 150 μL of McCoy’s medium was then added to the lower chamber containing 10% FBS and penicillin/streptomycin as chemoattractants. Cells were allowed to migrate to the lower chamber in a humidified atmosphere containing 5% CO2 at 37 °C for 24 h. Afterwards, top and bottom chambers were aspirated and washed with washing buffer supplemented with the kit. About 100 μL of Cell Dissociation Solution/Calcein-AM was added to each bottom chamber well and incubated for 1 h at 37 °C in CO2 incubator. The cells internalized calcein-AM and the intracellular esterases cleaved the AM moiety to generate free calcein. Fluorescence of the samples was determined at 485 nm excitation, 520 nm emission, using ELISA plate reader (BioTek Instruments, Winooski, VT, USA). The number of cells that had invaded through the BME coat was calculated using a standard curve. Results were expressed as percentage of invasion (%) compared to the control.

[4] = test system: p-ERK1/2 in HT-29 cells; assay: Western blot of phosphorylated ERK1/2; format: cell-based, human; settings: 24 h; 10 and 20 μg/mL
Experimental: Cells were cultured to 80% confluence at 37 °C. After 24 h of treatment with the compounds (10 and 20 µg/mL for compounds 1, 2, 5, 6, 7, and 8, and 30 and 60 µg/mL for compounds 3 and 4), HT-29 cells were rinsed twice with ice-cold PBS, and then lysed immediately in lysis buffer (250 mM NaCl, 50 mM Tris (pH 7.5), 0.5 mM EDTA, 5 mM EGTA, 8 mM MgCl2, 1 mM PMSF, 0.01 mg/mL pepstatin A, 0.01 mg/mL leupeptin, 0.01 mg/mL aprotinin, 1% Triton X-100). After centrifugation at 12,000 g for 3 min at 4°C to separate the cellular debris, the supernatant was collected and stored at −80°C until use. The protein concentrations were determined using Bio-Rad Protein Assay (BioRad, Richmond, CA, USA), according to the manufacturer’s instructions.
Equal protein content (50 μg) samples of cell lysates were separated on 10% SDS–polyacrylamide gel and transferred to polyvinylidene difluoride membranes (Hybond-P, Amershan Biosciences, Little Chalfont, UK). The membranes were blocked with 5% (w/v) non-fat dry milk in Tris-buffered saline containing 0.1% Tween-20 buffer (pH 7.4) (TBST) for 1 h at room temperature and incubated with agitation with specific antibodies: anti-pERK1/2 (Cell Signaling; 1:1000), anti-pJNK (Cell Signaling; 1:1000), anti-pAKT (Cell Signaling; 1:1000), anti-β-actin (Sigma-Aldrich; 1:500). Membranes were incubated overnight at 4°C with gentle shaking. The secondary antibody was a peroxidase-conjugated goat anti-mouse or -rabbit antibody (1:10,000; DakoCytomation, Carpinteria, CA, USA). After washing the membrane three times in TBST buffer (10 min), the signals were detected using an enhanced chemiluminescence light-detecting kit (Super-Signal West Pico Chemiluminescent Substrate, Pierce, IL, USA), according to the manufacturer’s instructions and exposed to an X-ray film (GE Healthcare Ltd., Amersham, UK). The protein band densities were analyzed and quantified with a Scientific Imaging Systems (Biophotonics ImageJ Analysis Software, National Institute of Mental Health, Bethesda, MD, USA). β-actin was used to confirm the equal loading and transfer of proteins.

| Structure (SMILES) | accumulation of cells at the G2/M phase (cell cycle arrest, words) [1] | inhibition at 10 µg/mL ([2]; 10 μg/mL) [%] | inhibition at 10 µg/mL [3] [%] | p-ERK1/2 level vs control [4] | inhibition of cell migration ([2]; 10 μg/mL) | inhibition of cell migration ([2]; 30 μg/mL (methods, Figure 5B)) | inhibition at 30 µg/mL ([3]; 30 μg/mL (methods, Figure 5C)) [%] |
| --- | --- | --- | --- | --- | --- | --- | --- |
| COc1c(C)cc(O)cc1C/C=C(\C)CC(=O)/C=C(/C)CCCC(C)(O)C(=O)/C=C/C(C)(C)O (centres unmarked) [Compound 1, usneoidone Z] | significant cell cycle arrest in the G2/M | 28.4 | > 40 | significantly reduced | – | – | – |
| COc1c(C)cc(O)cc1C/C=C(\C)CC(=O)/C=C(\C)CCCC(C)(O)C(=O)/C=C/C(C)(C)O (centres unmarked) [Compound 2, 11-hydroxy-1′-O-methylamentadione] | significant | – | – | significantly reduced | no significant effects | – | – |
| COc1c(C)cc(O)cc1C/C=C(\C)CC(=O)/C=C(\C)CCCC(C)=O [Compound 3, cystomexicone B] | significant | – | – | – | – | no significant effects | > 40 |
| COc1c(C)cc(O)cc1/C=C/C(C)(O)CC(=O)/C=C(/C)CCCC(C)C(=O)/C=C/C(C)(C)O (centres unmarked) [Compound 7, cystodione A] | significant | 30.7 | – | significantly reduced | – | – | – |
| COc1c(C)cc(O)cc1/C=C/C(C)(O)CC(=O)/C=C(\C)CCCC(C)C(=O)/C=C/C(C)(C)O (centres unmarked) [Compound 8, cystodione B] | not significant | 59.1 | > 40 | significantly reduced | – | – | – |
